# Test results: patent US7893266B2, “Detection of cancer cells in vitro using sigma-2 receptor ligands as radiotracers” (Washington University, priority 2003, dated 2011)
# System: EMT-6 mammary tumors
# Assay: Biodistribution in EMT-6 BALB/C mice
# Assay type: in vivo
# Experimental: As used herein, the term “tumor:background ratio” (i.e., tumor:fat ratio, tumor:muscle ratio, tumor:lung ratio, tumor:blood ratio) refers to the % injected dose/g tissue of the radiotracer in the tumor divided by the % injected dose/g […] in the background tissue (i.e., fat, muscle, lung, blood).
# B. Biodistribution Studies of ^11C analogs in Tumor-Bearing Mice. Biodistribution studies were conducted in mature Balb/c mice that were implanted with EMT-6 mammary tumors identified herein as EMT-6 BALB/C mice to create laboratory tumor-bearing mice. The mice were implanted in the scapular region seven days prior to the study. Animals were injected with 100-150 μCi of the ^11C-labeled radiotracer and the animals were sacrificed at 5, 30, and 60 min post-i.v. injection of the radiotracer.
# A series of biodistribution studies in tumor-bearing mice were also conducted with [^76Br]8, [^76Br]6, [^125I]8i, and [^125I]6i.
smiles,measurement,setting,value
COc1cc2c(cc1OC)CN(CCCCNC(=O)c1cc(Br)cc(OC)c1O[11CH3])CC2 [[^11C]6],ratio Tumor:blood,5 min,0.40 ± 0.01
same,ratio Tumor:fat,5 min,1.82 ± 0.45
same,ratio Tumor:heart,5 min,0.80 ± 0.07
same,ratio Tumor:lung,5 min,0.47 ± 0.04
same,ratio Tumor:muscle,5 min,1.46 ± 0.19
same,ratio Tumor:blood,30 min,0.94 ± 0.05
same,ratio Tumor:fat,30 min,2.05 ± 0.57
same,ratio Tumor:heart,30 min,1.36 ± 0.12
same,ratio Tumor:lung,30 min,0.69 ± 0.08
same,ratio Tumor:muscle,30 min,0.59 ± 0.05
same,ratio Tumor:blood,1 hour,1.10 ± 0.11
same,ratio Tumor:fat,1 hour,2.77 ± 0.82
same,ratio Tumor:heart,1 hour,1.86 ± 0.64
same,ratio Tumor:lung,1 hour,0.79 ± 0.30
same,ratio Tumor:muscle,1 hour,1.84 ± 0.25
same,% ID per gram blood,5 min,7.12 ± 1.01 % ID per gram
same,% ID per gram blood,30 min,0.99 ± 0.15 % ID per gram
same,% ID per gram blood,1 hour,0.45 ± 0.04 % ID per gram
same,% ID per gram brain,5 min,0.33 ± 0.09 % ID per gram
same,% ID per gram brain,30 min,0.10 ± 0.00 % ID per gram
same,% ID per gram brain,1 hour,0.03 ± 0.00 % ID per gram
same,% ID per gram fat,5 min,1.66 ± 0.41 % ID per gram
same,% ID per gram fat,30 min,0.46 ± 0.19 % ID per gram
same,% ID per gram fat,1 hour,0.20 ± 0.08 % ID per gram
same,% ID per gram heart,5 min,3.54 ± 0.31 % ID per gram
same,% ID per gram heart,30 min,0.68 ± 0.12 % ID per gram
same,% ID per gram heart,1 hour,0.29 ± 0.10 % ID per gram
same,% ID per gram kidney,5 min,19.48 ± 1.46 % ID per gram
same,% ID per gram kidney,30 min,2.57 ± 0.78 % ID per gram
same,% ID per gram kidney,1 hour,1.34 ± 0.19 % ID per gram
same,% ID per gram liver,5 min,25.02 ± 3.70 % ID per gram
same,% ID per gram liver,30 min,2.48 ± 0.52 % ID per gram
same,% ID per gram liver,1 hour,1.19 ± 0.17 % ID per gram
same,% ID per gram lung,5 min,6.01 ± 0.77 % ID per gram
same,% ID per gram lung,30 min,1.34 ± 0.23 % ID per gram
same,% ID per gram lung,1 hour,0.70 ± 0.26 % ID per gram
same,% ID per gram muscle,5 min,1.94 ± 0.13 % ID per gram
same,% ID per gram muscle,30 min,1.67 ± 0.14 % ID per gram
same,% ID per gram muscle,1 hour,0.26 ± 0.07 % ID per gram
same,% ID per gram tumor,5 min,2.82 ± 0.36 % ID per gram
same,% ID per gram tumor,30 min,0.92 ± 0.10 % ID per gram
same,% ID per gram tumor,1 hour,0.50 ± 0.09 % ID per gram
COc1cc2c(cc1OC)CN(CCNC(=O)c1cc(C)ccc1O[11CH3])CC2 [[^11C]9],% ID per gram blood,5 min,5.89 ± 0.29 % ID per gram
same,% ID per gram blood,30 min,2.62 ± 0.22 % ID per gram
same,% ID per gram blood,1 hour,1.98 ± 0.35 % ID per gram
same,% ID per gram brain,5 min,1.63 ± 0.30 % ID per gram
same,% ID per gram brain,30 min,0.11 ± 0.01 % ID per gram
same,% ID per gram brain,1 hour,0.10 ± 0.04 % ID per gram
same,% ID per gram fat,5 min,3.07 ± 0.40 % ID per gram
same,% ID per gram fat,30 min,0.38 ± 0.12 % ID per gram
same,% ID per gram fat,1 hour,0.26 ± 0.09 % ID per gram
same,% ID per gram heart,5 min,2.89 ± 0.36 % ID per gram
same,% ID per gram heart,30 min,0.76 ± 0.06 % ID per gram
same,% ID per gram heart,1 hour,0.76 ± 0.46 % ID per gram
same,% ID per gram kidney,5 min,44.07 ± 1.67 % ID per gram
same,% ID per gram kidney,30 min,2.77 ± 0.42 % ID per gram
same,% ID per gram kidney,1 hour,1.01 ± 0.12 % ID per gram
same,% ID per gram liver,5 min,18.49 ± 2.87 % ID per gram
same,% ID per gram liver,30 min,3.87 ± 0.67 % ID per gram
same,% ID per gram liver,1 hour,1.70 ± 0.23 % ID per gram
same,% ID per gram lung,5 min,5.69 ± 0.70 % ID per gram
same,% ID per gram lung,30 min,1.42 ± 0.15 % ID per gram
same,% ID per gram lung,1 hour,1.39 ± 0.67 % ID per gram
same,% ID per gram muscle,5 min,1.75 ± 0.21 % ID per gram
same,% ID per gram muscle,30 min,0.56 ± 0.19 % ID per gram
same,% ID per gram muscle,1 hour,0.41 ± 0.22 % ID per gram
same,% ID per gram tumor,5 min,3.10 ± 0.25 % ID per gram
same,% ID per gram tumor,30 min,1.08 ± 0.08 % ID per gram
same,% ID per gram tumor,1 hour,0.85 ± 0.14 % ID per gram
